The values that follow come from BindingDB's records for patent USRE49517 (Janssen Pharmaceuticals, 2023).

The structures appear in SMILES notation.

In this data set the target is Potassium voltage-gated channel subfamily H member 2 (Homo sapiens, UniProt Q12809). The data set can be described thus: Inhibition of Specific Binding to the hERG Receptor (HERGBD). On the procedure:
Binding was terminated by filtration of the incubated membrane preparations using Filtermat B (Pharmacia, Uppsala Sweden) and a Micro Cell Harvester (Skatron, Lier, Norway). The Filtermat B had been presoaked with 1% polyethylen imine and carefully washed with 0.05 M Tris/HCl-buffer pH=7.7 after the filtration to separate free and bound radioactivity. […] The optimal amount of membrane preparation in the assay was determined and optimized for each membrane preparation separately in front of using the membranes in compound testing. […] For pipetting of the incubation mixture we routinely use the robot Biomek2000 (Fa. Beckman).

Potassium voltage-gated channel subfamily H member 2, sequence (Q12809 whole entry): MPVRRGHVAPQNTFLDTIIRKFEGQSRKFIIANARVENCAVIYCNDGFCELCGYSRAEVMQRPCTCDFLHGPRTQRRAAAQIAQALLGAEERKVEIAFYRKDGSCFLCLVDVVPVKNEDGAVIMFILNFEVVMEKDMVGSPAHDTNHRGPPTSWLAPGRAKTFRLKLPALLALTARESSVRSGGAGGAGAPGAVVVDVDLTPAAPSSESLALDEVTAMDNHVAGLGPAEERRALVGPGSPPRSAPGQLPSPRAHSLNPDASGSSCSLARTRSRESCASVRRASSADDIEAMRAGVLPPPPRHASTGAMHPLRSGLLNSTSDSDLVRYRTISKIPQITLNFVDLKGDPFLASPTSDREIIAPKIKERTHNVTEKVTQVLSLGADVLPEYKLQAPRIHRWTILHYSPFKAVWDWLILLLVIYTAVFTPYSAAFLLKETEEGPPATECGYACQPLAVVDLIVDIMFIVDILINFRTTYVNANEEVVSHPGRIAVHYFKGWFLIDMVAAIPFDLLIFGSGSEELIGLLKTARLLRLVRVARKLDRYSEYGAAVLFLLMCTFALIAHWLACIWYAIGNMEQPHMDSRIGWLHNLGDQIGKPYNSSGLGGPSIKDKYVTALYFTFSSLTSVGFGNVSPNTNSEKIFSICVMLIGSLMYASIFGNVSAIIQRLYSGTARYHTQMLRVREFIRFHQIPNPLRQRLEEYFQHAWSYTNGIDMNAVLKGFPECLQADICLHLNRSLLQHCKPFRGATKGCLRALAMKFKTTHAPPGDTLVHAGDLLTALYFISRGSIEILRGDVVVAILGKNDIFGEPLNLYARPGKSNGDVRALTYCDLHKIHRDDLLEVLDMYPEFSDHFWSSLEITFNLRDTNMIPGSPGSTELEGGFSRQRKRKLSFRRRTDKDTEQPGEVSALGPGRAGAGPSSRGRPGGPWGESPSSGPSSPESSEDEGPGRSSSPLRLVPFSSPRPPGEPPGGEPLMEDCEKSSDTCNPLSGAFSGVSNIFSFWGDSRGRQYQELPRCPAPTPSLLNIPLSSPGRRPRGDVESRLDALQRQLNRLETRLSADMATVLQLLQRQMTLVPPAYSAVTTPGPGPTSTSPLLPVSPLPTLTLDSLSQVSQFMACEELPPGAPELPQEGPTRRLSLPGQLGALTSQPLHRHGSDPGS

Take `COc1cc(Cl)ccc1-c1cnn(Cc2ccn(C)n2)c1` [USRE49517, Example 67]: the IC50 is 63.3 µM. That is a double-digit micromolar value.
